# Experiments:
# PBMC [1] = assay: Antiproliferative activity against human PBMC upto 100 uM; format: cell-based
# PBMC [2] = assay: Antiproliferative activity against human PBMC; format: cell-based
Structure (SMILES),Activity (PBMC [1]),IC50 (PBMC [2])
O=c1ccc2c(O[C@@H]3O[C@H](CO)[C@@H](O)[C@H](O)[C@H]3O)c(O[C@@H]3O[C@H](CO)[C@@H](O)[C@H](O)[C@H]3O)c3occc3c2o1,Not Active,
O=c1ccc2c(O)c3ccoc3c(O[C@@H]3O[C@H](CO)[C@@H](O)[C@H](O)[C@H]3O)c2o1,Not Active,
O=c1ccc2c(O[C@@H]3O[C@H](CO)[C@@H](O)[C@H](O)[C@H]3O)c(O)c3occc3c2o1,,33.4 µM
O=c1ccc2c(O[C@@H]3O[C@H](CO)[C@@H](O)[C@H](O)[C@H]3O)c3ccoc3c(O)c2o1,Not Active,
O=c1ccc2c(O)c(O[C@@H]3O[C@H](CO)[C@@H](O)[C@H](O)[C@H]3O)c3occc3c2o1,Not Active,
C/C=C/C[C@@H](C)[C@@H](O)[C@H]1C(=O)N[C@@H](CC)C(=O)N(C)CC(=O)N(C)[C@@H](CC(C)C)C(=O)N[C@@H](C(C)C)C(=O)N(C)[C@@H](CC(C)C)C(=O)N[C@@H](C)C(=O)N[C@H](C)C(=O)N(C)[C@@H](CC(C)C)C(=O)N(C)[C@@H](CC(C)C)C(=O)N(C)[C@@H](C(C)C)C(=O)N1C [CYCLOSPORINE],,0.012 µM

# Source: ChEMBL document CHEMBL1142560, “Furocoumarin glycosides from the leaves of Ficus ruficaulis Merr. var. antaoensis” (J Nat Prod, 2005)
